Measured values published in patent US10428083B2, “Heterocyclylmethyl-thienouracile as antagonists of the adenosine-A2B-receptor” (BAYER PHARMA AKTIENGESELLSCHAFT, priority 2015, dated 2019).

Target: human adenosine A2b receptor (Homo sapiens (Human), UniProt P29275)
Test: Cellular in vitro reporter gene test for A2b receptor activity (CHO-K1, CRE-luciferase, NECA stimulation)
Type: cell-based
Conditions: recombinant CHO-K1 cell line, CRE-luciferase reporter, antagonism of EC50 concentration of NECA; in some cases means of several determinations, rounded to two significant figures; read-out: A2b receptor IC50
Protocol: B-1. Cellular In Vitro Tests for Determining A2b Receptor Activity and Adenosine Receptor Selectivity
In the case of the A2a and A2b cell lines, this is a minimal promoter having a plurality of cAMP-responsive elements (CRE). Stimulation of the Gs-coupled A2b or A2a receptors by NECA ultimately leads, via formation of cAMP, to CRE-dependent induction of luciferase expression, which is detected 3 hours after the start of the incubation with NECA using a detection solution in a suitable luminometer. For testing the antagonists, initially, in a pre-experiment, the concentration of NECA which, at the test day in question, results in half-maximum stimulation of luciferase expression (EC50 concentration) is determined. By joint incubation of this EC50 concentration of NECA with the substances to be tested, it is possible to determine their antagonistic activity.

Sequence of human adenosine A2b receptor (P29275 whole entry): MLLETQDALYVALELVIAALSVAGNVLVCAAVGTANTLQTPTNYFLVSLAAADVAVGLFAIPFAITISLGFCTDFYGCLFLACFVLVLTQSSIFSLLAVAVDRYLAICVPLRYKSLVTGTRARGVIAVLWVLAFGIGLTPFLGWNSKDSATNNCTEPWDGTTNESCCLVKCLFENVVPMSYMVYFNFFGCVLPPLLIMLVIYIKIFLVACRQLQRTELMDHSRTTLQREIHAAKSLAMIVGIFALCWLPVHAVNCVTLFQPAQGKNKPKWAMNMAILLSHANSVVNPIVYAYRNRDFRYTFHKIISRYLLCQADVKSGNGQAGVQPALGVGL

Compound	IC50
Cc1c(CN2CCNC2=O)sc2c1c(=O)n(CC(F)(F)F)c(=O)n2CC1CCO1 (racemic) [Example 206, 5-Methyl-1-(oxetan-2-ylmethyl)-6-[(2-oxoimidazolidin-1-yl)methyl]-3-(2,2,2-trifluoroethyl)thieno[2,3-d]pyrimidine-2,4(1H,3H)-dione]	0.011 µM
Cc1c(CN2CCNC2=O)sc2c1c(=O)n(CC(F)(F)F)c(=O)n2CC1CCCO1 (racemic) [Example 209, 5-Methyl-6-[(2-oxoimidazolidin-1-yl)methyl]-1-(tetrahydrofuran-2-ylmethyl)-3-(2,2,2-trifluoroethyl)thieno[2,3-d]pyrimidine-2,4(1H,3H)-dione]	0.012 µM
Cc1c(CN2CCNC2=O)sc2c1c(=O)n(CC(F)F)c(=O)n2CC1CCO1 (racemic) [Example 216, 3-(2,2-Difluoroethyl)-5-methyl-1-(oxetan-2-ylmethyl)-6-[(2-oxoimidazolidin-1-yl)methyl]thieno[2,3-d]pyrimidine-2,4(1H,3H)-dione]	0.034 µM
Cc1c(CN2CCNC2=O)sc2c1c(=O)n(CC(F)F)c(=O)n2CC1CCCO1 (racemic) [Example 219, 3-(2,2-Difluoroethyl)-5-methyl-6-[(2-oxoimidazolidin-1-yl)methyl]-1-(tetrahydrofuran-2-ylmethyl)thieno[2,3-d]pyrimidine-2,4(1H,3H)-dione]	0.019 µM
CCn1c(=O)c2c(C)c(Cn3cc[nH]c3=O)sc2n(CC2CCCO2)c1=O (racemic) [Example 242, 3-Ethyl-5-methyl-6-[(2-oxo-2,3-dihydro-1H-imidazol-1-yl)methyl]-1-(tetrahydrofuran-2-ylmethyl)thieno[2,3-d]pyrimidine-2,4(1H,3H)-dione]	0.0014 µM
Cc1c(Cn2cc[nH]c2=O)sc2c1c(=O)n(C(C)C)c(=O)n2CC1CCCO1 (racemic) [Example 247, 3-Isopropyl-5-methyl-6-[(2-oxo-2,3-dihydro-1H-imidazol-1-yl)methyl]-1-(tetrahydrofuran-2-ylmethyl)thieno[2,3-d]pyrimidine-2,4(1H,3H)-dione]	0.0089 µM
CCn1c(=O)c2c(C)c(CN3CCNC3=NC#N)sc2n(CC2CCO2)c1=O (racemic) [Example 256, [1-{[3-Ethyl-5-methyl-1-(oxetan-2-ylmethyl)-2,4-dioxo-1,2,3,4-tetrahydrothieno[2,3-d]pyrimidin-6-yl]methyl}imidazolidin-2-ylidene]cyanamide]	0.011 µM
CCn1c(=O)c2c(C)c(CN3CCNC3=NC#N)sc2n(CC2CCCO2)c1=O (racemic) [Example 259, [1-{[3-Ethyl-5-methyl-2,4-dioxo-1-(tetrahydrofuran-2-ylmethyl)-1,2,3,4-tetrahydrothieno[2,3-d]pyrimidin-6-yl]methyl}imidazolidin-2-ylidene]cyanamide]	0.0098 µM
Cc1c(CN2CCNC2=NC#N)sc2c1c(=O)n(C(C)C)c(=O)n2CC1CCO1 (racemic) [Example 264, [1-{[3-Isopropyl-5-methyl-1-(oxetan-2-ylmethyl)-2,4-dioxo-1,2,3,4-tetrahydrothieno[2,3-d]pyrimidin-6-yl]methyl}imidazolidin-2-ylidene]cyanamide]	0.0031 µM
Cc1c(CN2CCNC2=NC#N)sc2c1c(=O)n(C(C)C)c(=O)n2CC1CCCO1 (racemic) [Example 267, [1-{[3-Isopropyl-5-methyl-2,4-dioxo-1-(tetrahydrofuran-2-ylmethyl)-1,2,3,4-tetrahydrothieno[2,3-d]pyrimidin-6-yl]methyl}imidazolidin-2-ylidene]cyanamide]	0.0046 µM
Cc1c(CN2CCNC2=NC#N)sc2c1c(=O)n(CC(F)(F)F)c(=O)n2CC1CCCO1 (racemic) [Example 269, [1-{[5-Methyl-2,4-dioxo-1-(tetrahydrofuran-2-ylmethyl)-3-(2,2,2-trifluoroethyl)-1,2,3,4-tetrahydrothieno[2,3-d]pyrimidin-6-yl]methyl}imidazolidin-2-ylidene]cyanamide]	0.024 µM
Cc1c(Cn2[nH]ccc2=O)sc2c1c(=O)n(CC(F)(F)F)c(=O)n2CC1CCCO1 (racemic) [Example 284, 5-Methyl-6-[(5-oxo-2,5-dihydro-1H-pyrazol-1-yl)methyl]-1-(tetrahydrofuran-2-ylmethyl)-3-(2,2,2-trifluoroethyl)thieno[2,3-d]pyrimidine-2,4(1H,3H)-dione]	0.079 µM
Cc1c(Cn2cc[nH]c2=O)sc2c1c(=O)n(CC(F)(F)F)c(=O)n2CC1CCCO1 (racemic) [Example 341, 5-Methyl-6-[(2-oxo-2,3-dihydro-1H-imidazol-1-yl)methyl]-1-(tetrahydrofuran-2-ylmethyl)-3-(2,2,2-trifluoroethyl)thieno[2,3-d]pyrimidine-2,4(1H,3H)-dione]	0.012 µM

Next, values leading:

IC50	Compound
0.023 µM	COCCn1c(=O)c2c(C)c(CN3CCNC3=O)sc2n(CC2CCCO2)c1=O (racemic) [Example 233, 3-(2-Methoxyethyl)-5-methyl-6-[(2-oxoimidazolidin-1-yl)methyl]-1-(tetrahydrofuran-2-ylmethyl)thieno[2,3-d]pyrimidine-2,4(1H,3H)-dione]
0.13 µM	COCCn1c(=O)c2c(C)c(CN3CCNC(=O)C3=O)sc2n(CC2CCCO2)c1=O (racemic) [Example 278, 6-[(2,3-Dioxopiperazin-1-yl)methyl]-3-(2-methoxyethyl)-5-methyl-1-(tetrahydrofuran-2-ylmethyl)thieno[2,3-d]pyrimidine-2,4(1H,3H)-dione]
0.18 µM	COCCn1c(=O)c2c(C)c(Cn3[nH]ccc3=O)sc2n(CC2CCCO2)c1=O (racemic) [Example 289, 3-(2-Methoxyethyl)-5-methyl-6-[(5-oxo-2,5-dihydro-1H-pyrazol-1-yl)methyl]-1-(tetrahydrofuran-2-ylmethyl)thieno[2,3-d]pyrimidine-2,4(1H,3H)-dione]
0.046 µM	CCn1c(=O)c2c(C)c(CN3CC(C)NC3=S)sc2n(CCOC)c1=O (racemic) [Example 303, 3-Ethyl-1-(2-methoxyethyl)-5-methyl-6-[(4-methyl-2-thioxoimidazolidin-1-yl)methyl]thieno[2,3-d]pyrimidine-2,4(1H,3H)-dione]
0.034 µM	COCCn1c(=O)n(CC2CC2(F)F)c(=O)c2c(C)c(CN3CCNC3=O)sc21 (racemic) [Example 323, 3-[(2,2-Difluorocyclopropyl)methyl]-1-(2-methoxyethyl)-5-methyl-6-[(2-oxoimidazolidin-1-yl)methyl]thieno[2,3-d]pyrimidine-2,4(1H,3H)-dione]
0.9 µM	COCCn1c(=O)n(C(C)COC)c(=O)c2c(C)c(CN3CCNC3=O)sc21 (racemic) [Example 329, 1-(2-Methoxyethyl)-3-(1-methoxypropan-2-yl)-5-methyl-6-[(2-oxoimidazolidin-1-yl)methyl]thieno[2,3-d]pyrimidine-2,4(1H,3H)-dione]
0.11 µM	COCCn1c(=O)n(CC2CCCO2)c(=O)c2c(C)c(CN3CCNC3=O)sc21 (racemic) [Example 332, 1-(2-Methoxyethyl)-5-methyl-6-[(2-oxoimidazolidin-1-yl)methyl]-3-(tetrahydrofuran-2-ylmethyl)thieno[2,3-d]pyrimidine-2,4(1H,3H)-dione]
0.037 µM	COCCn1c(=O)c2c(C)c(Cn3cc[nH]c3=O)sc2n(CC2CCCO2)c1=O (racemic) [Example 346, 3-(2-Methoxyethyl)-5-methyl-6-[(2-oxo-2,3-dihydro-1H-imidazol-1-yl)methyl]-1-(tetrahydrofuran-2-ylmethyl)thieno[2,3-d]pyrimidine-2,4(1H,3H)-dione]
